pEC50: −log10 of the molar value. Values joined by “and” are separate entries in the source; they are usually repeats but may differ in a detail not shown here. Identical values can stand only once.
What was measured:
T lymphocyte = T lymphocyte cell proliferation assay (CFSE, CD4+/CD8+ flow cytometry); type: cell-based, human
Method: T lymphocyte cell proliferation assay was performed according to a reported method[58] with some modification. Briefly, 5 × 10^6 cells /mL cells were stained 2.5 μM CFSE (Tonbo Biosciences) and incubated at 37 °C for 12 min. Then washed and discarded the supernatant and adjusted the CFSE stained cell to 1.75 × 10^6 cells /mL. Cells were diluted in 1640 completed medium containing 5 μg/mL anti-CD3 antibody (Tonbo Biosciences) to 3 × 10^5 cells/mL and seed in a 96-well plate or 24-well plate that pre-packaged 0.4 μg/well anti-CD28 antibody and 1.6 μg anti-CD28 antibody (24-well) (Tonbo Biosciences). Cells were then cultured for 3 days, 9 days or 12 days. Subsequently, the proportion of CD4^+ and CD8^+ cells was determined by flow cytometry (Beckman Coulter, FC500) according to manufacturer’s instruction of PE-Cyanine7 anti-Human CD8a and PE anti-Human CD4 antibodies (Tonbo Biosciences). Data analyzing was performed by using CXP software (Beckman Coulter, Supplementary Fig. 8).

mature osteoclasts = assay: Osteoclasts apoptotic activity assay; type: cell-based, mouse
Method: Mature osteoclasts were generated according to “Primary cultures of BMMs and osteoclastogenesis assay”. Mature osteoclasts were treated with or without compounds for 24 h[53]. At the end of incubation, cells were fixed with 4% paraformaldehyde and applied TRAP-staining. Apoptosis and cell death was measured by in situ fluorescence staining with AnnexinV-FITC (Beyotime Biotechnology) and prodidium iodide or DAPI staining flowing by their instructions. TRAP-positive cells, Annexin V, PI, and DAPI were visualized by Leica fluorescence microscopic.

OVX mice = assay: Three-point bending test of femur (biomechanical strength); type: in vivo, mouse; details: OVX mice + S3-15, individual animals
Method: The weight of rats or mice were recorded every week in the treatment period. After treatment, the rats were harvested, the serum, heart, liver, spleen, lung, kidney, thymus, and femurs were all collected and subjected to subsequent analysis. The right femurs of rats or mice were cleaned excess soft tissue, fixed in 10% formalin, and processed them for microcomputed tomography (micro-CT) analysis. Left mice femurs were collected and excarnate for biomechanical strength testing. Mice peripheral blood were as well as collected for flow cytometry analyzing.

[1] = Healthy donor 1, 12 day, S3-15 10
[2] = Healthy donor 2, 9 day, S3-15 0.2
[3] = Healthy donor 2, 9 day, S3-15 1
[4] = Healthy donor 2, 9 day, S3-15 5
[5] = Healthy donor 2, 9 day, S3-15 10
[6] = cancer patient donors 1, 3 day, S3-15 conc. 0.2
[7] = cancer patient donors 1, 3 day, S3-15 conc. 1
[8] = cancer patient donors 1, 3 day, S3-15 conc. 5
[9] = cancer patient donors 1, 3 day, S3-15 conc. 10
[10] = healthy donors 2, 9 day, S3-15 conc. 0.2
[11] = healthy donors 2, 9 day, S3-15 conc. 1
[12] = healthy donors 2, 9 day, S3-15 conc. 5
[13] = healthy donors 2, 9 day, S3-15 conc. 10

## CC(=O)/C(=N\Nc1ccccc1C(=O)O)C(=O)Nc1ccccn1 [S3-15]
T lymphocyte; [1]
  CD8+cells in CFSE-cells (%): 73.6% and 72.27% and 73.36% and 76.51%
  CFSE- cells in total cells (%): 23.52% and 17.38% and 18.28% and 16.8%
T lymphocyte; [2]
  CD8+ cells in total cells (%): 60.09% and 60.2% and 40.04%
  CD8+cells in CFSE-cells (%): 54.45% and 45.56% and 52.87%
  CFSE- cells in total cells (%): 42.85% and 34.53% and 42.91%
T lymphocyte; [3]
  CD8+ cells in total cells (%): 57.52% and 60.07% and 56.11%
  CD8+cells in CFSE-cells (%): 48.8% and 34.73% and 39.45%
  CFSE- cells in total cells (%): 48.46% and 65.6% and 38.41%
T lymphocyte; [4]
  CD8+ cells in total cells (%): 39.84% and 41.04% and 43.72%
  CD8+cells in CFSE-cells (%): 45.39% and 36.07% and 59.1%
  CFSE- cells in total cells (%): 43.47% and 38.16% and 54.05%
T lymphocyte; [5]
  CD8+ cells in total cells (%): 61.43% and 57.64% and 58.69%
  CD8+cells in CFSE-cells (%): 58.1% and 47.19% and 40.24%
  CFSE- cells in total cells (%): 51.79% and 37.98% and 32.24%
T lymphocyte; [6]
  CD4+cells in total cells (%): 12.08% and 10.6% and 16.64% and 9.84%
  CFSE-CD4+cells in CFSE-cells (%): 2.66% and 4.81% and 10.71% and 8.92%
T lymphocyte; [7]
  CD4+cells in total cells (%): 18.36% and 15% and 12.2% and 13.48%
  CFSE-CD4+cells in CFSE-cells (%): 2.71% and 4.16% and 9.18% and 4.63%
T lymphocyte; [8]
  CD4+cells in total cells (%): 12.53% and 13.43% and 14.21% and 19.52%
  CFSE-CD4+cells in CFSE-cells (%): 4.9% and 5.71% and 2.54% and 4.68%
T lymphocyte; [9]
  CD4+cells in total cells (%): 8.57% and 13.89% and 11.58% and 13%
  CFSE-CD4+cells in CFSE-cells (%): 6.23% and 7.1% and 4.66% and 4.48%
T lymphocyte; healthy donors 1, 3 day, S3-15 conc. 0.2
  CD4+cells in total cells (%): 58.71% and 65.57% and 73.86% and 89.25%
T lymphocyte; healthy donors 1, 3 day, S3-15 conc. 1
  CD4+cells in total cells (%): 88.98% and 73.53% and 85.9% and 87.87%
T lymphocyte; healthy donors 1, 3 day, S3-15 conc. 5
  CD4+cells in total cells (%): 88.97% and 73.33% and 75.77% and 81.04%
T lymphocyte; healthy donors 1, 3 day, S3-15 conc. 10
  CD4+cells in total cells (%): 84.3% and 76.41% and 71.29%
T lymphocyte; healthy donors 1, 12 day, S3-15 conc. 0.2
  CFSE-CD4+cells in CFSE-cells (%): 11.71% and 10.81% and 13.35% and 13.65%
T lymphocyte; healthy donors 1, 12 day, S3-15 conc. 1
  CFSE-CD4+cells in CFSE-cells (%): 10.81% and 12.31% and 11.84% and 10.58%
T lymphocyte; healthy donors 1, 12 day, S3-15 conc. 5
  CFSE-CD4+cells in CFSE-cells (%): 11% and 11.24% and 11.79% and 10.58%
T lymphocyte; healthy donors 1, 12 day, S3-15 conc. 10
  CFSE-CD4+cells in CFSE-cells (%): 15.92% and 12.12% and 12.19% and 12.32%
T lymphocyte; [10]
  CD4+cells in total cells (%): 20.78% and 19.93% and 21.03%
  CFSE-CD4+cells in CFSE-cells (%): 37.84% and 45.82% and 32.47%
T lymphocyte; [11]
  CD4+cells in total cells (%): 25.04% and 25.92% and 25.62%
  CFSE-CD4+cells in CFSE-cells (%): 42.79% and 60.67% and 51.42%
T lymphocyte; [12]
  CD4+cells in total cells (%): 24.48% and 26.48% and 22.29%
  CFSE-CD4+cells in CFSE-cells (%): 46.81% and 55.67% and 30.69%
T lymphocyte; [13]
  CD4+cells in total cells (%): 21.17% and 21.09% and 21.21%
  CFSE-CD4+cells in CFSE-cells (%): 34.98% and 45.24% and 51.76%
T lymphocyte; human lymphocytes, in words
  lymphocyte proliferation: did not change lymphocyte proliferation
Mature osteoclasts; Mus musculus, Osteoclast, 24 h treatment, read-out: EC50, apoptosis of mature osteoclasts
  pEC50: 6.26
Mature osteoclasts; mature osteoclasts, vehicle 41, 55, 67
  dead osteoclast quantification (fig. 6f): 227 and 290 and 265
OVX mice
  Femur ultimate load: 16.2764 N and 16.6572 N and 19.3534 N and 19.5584 N and 18.4846 N and 18.452 N and 16.2074 N and 13.318 N

From PMC9468151, “Identification of a binding site on soluble RANKL that can be targeted to inhibit soluble RANK-RANKL interactions and treat osteoporosis” (Nature Communications, 2022)
